# Experimental data taken from ChEMBL document CHEMBL1201862, “PubChem BioAssay data set” (2004).
# The source made the active and inactive calls.
# What was measured:
# [1] = target: Botulinum neurotoxin type F (Clostridium botulinum, UniProt P30996); experiment: High-throughput multiplex microsphere dose response for inhibitors of toxin protease, specifically Botulinum neurotoxin light chain F protease, compounds from Cherry Pick 02.; format: functional; conditions: read-out: EC50_MICROM
# [2] = target: SWI/SNF-related matrix-associated actin-dependent regulator of chromatin subfamily A member 2 (Homo sapiens, UniProt P51531); experiment: Luminescence-based cell-based high throughput dose response assay to identify activators of the function of SWI/SNF related, matrix associated, actin dependent regulator of chromatin, subfamily a, member 2 (SMARCA2, BRM).; format: functional
# [3] = Counterscreen for activators of the function of SWI/SNF related, matrix associated, actin dependent regulator of chromatin, subfamily a, member 2 (SMARCA2, BRM): Luminescence-based cell-based high throughput dose response assay to identify non-selective compounds using the VP16 reporter assay.; format: functional
# [4] = target: T1, Rac GTPase-activating protein 1 (Homo sapiens, UniProt Q9H0H5); experiment: blockers of MgcRacGAP-driven Rac1 GTP hydrolysis – biochemical, ADP Hunter fluorescence, primary and confirmatory, confirmation (AID 624330); format: functional
# T1 sequence (Q9H0H5 whole entry): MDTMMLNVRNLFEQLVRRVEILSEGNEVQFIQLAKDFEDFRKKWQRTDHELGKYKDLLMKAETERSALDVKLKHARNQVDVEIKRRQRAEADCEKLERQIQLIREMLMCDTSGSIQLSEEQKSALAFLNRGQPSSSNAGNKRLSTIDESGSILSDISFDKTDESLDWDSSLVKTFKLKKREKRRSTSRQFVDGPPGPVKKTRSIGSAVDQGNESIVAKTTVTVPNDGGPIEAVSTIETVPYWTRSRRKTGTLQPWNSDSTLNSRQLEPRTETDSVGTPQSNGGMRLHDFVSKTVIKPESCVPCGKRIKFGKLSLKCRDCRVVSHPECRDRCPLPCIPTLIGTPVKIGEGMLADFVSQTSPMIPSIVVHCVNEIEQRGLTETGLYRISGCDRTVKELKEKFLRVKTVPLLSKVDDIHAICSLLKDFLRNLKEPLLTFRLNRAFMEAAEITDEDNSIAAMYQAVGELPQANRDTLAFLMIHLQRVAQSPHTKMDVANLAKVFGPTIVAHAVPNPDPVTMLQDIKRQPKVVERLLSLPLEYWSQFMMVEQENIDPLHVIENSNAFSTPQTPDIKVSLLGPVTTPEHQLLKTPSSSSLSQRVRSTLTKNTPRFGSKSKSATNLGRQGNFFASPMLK
# [5] = target: Matrix metalloproteinase-14 (Homo sapiens, UniProt P50281); experiment: Dose Response confirmation of uHTS hits for a small molecule inhibitors of MT1-MMP activation in a fluorescence assay set 2.; format: functional
# [6] = target: T2, Heat shock factor protein 1 (Mus musculus, UniProt P38532); experiment: enhancement of HSF1-driven luciferase signal – cell-based, NIH3T3, luminescence, dose retest, confirmation (AID 435004); format: functional;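 note: stress induced by proteasome inhibitor MG132 added 30 min after compound; luciferase reporter driven by HSF1 response element in NIH3T3 cells; actives raise luminescence as potentiators of the MG132 stress response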
# T2 sequence (P38532 whole entry): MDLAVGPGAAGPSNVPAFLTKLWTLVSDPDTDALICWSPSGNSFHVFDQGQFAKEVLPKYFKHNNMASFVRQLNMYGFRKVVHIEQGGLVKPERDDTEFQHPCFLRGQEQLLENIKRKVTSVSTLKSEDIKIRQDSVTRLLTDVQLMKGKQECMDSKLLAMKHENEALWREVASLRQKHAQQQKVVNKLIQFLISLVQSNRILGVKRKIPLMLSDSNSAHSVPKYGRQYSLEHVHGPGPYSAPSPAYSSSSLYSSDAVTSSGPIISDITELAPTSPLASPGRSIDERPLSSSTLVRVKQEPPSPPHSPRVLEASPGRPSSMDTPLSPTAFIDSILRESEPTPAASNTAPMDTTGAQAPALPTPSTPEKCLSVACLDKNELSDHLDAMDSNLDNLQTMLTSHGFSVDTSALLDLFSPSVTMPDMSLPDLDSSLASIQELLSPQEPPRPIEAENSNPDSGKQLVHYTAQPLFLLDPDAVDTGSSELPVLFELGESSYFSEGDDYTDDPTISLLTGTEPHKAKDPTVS
# [7] = target: FAD-linked sulfhydryl oxidase ALR (Homo sapiens, UniProt P55789); experiment: ALR-catalysed DTT oxidation blockers – biochemical, H2O2 detection, luminescence, cherry-pick, dose response (AID 493248)
# [8] = target: T3, Replicative DNA helicase DnaB (Mycobacterium tuberculosis, UniProt P9WMR3); experiment: DnaB intein splicing inhibitors, dose response, biochemical, cell-free fluorescence (AID 449749); format: functional
# T3 sequence (P9WMR3 whole entry): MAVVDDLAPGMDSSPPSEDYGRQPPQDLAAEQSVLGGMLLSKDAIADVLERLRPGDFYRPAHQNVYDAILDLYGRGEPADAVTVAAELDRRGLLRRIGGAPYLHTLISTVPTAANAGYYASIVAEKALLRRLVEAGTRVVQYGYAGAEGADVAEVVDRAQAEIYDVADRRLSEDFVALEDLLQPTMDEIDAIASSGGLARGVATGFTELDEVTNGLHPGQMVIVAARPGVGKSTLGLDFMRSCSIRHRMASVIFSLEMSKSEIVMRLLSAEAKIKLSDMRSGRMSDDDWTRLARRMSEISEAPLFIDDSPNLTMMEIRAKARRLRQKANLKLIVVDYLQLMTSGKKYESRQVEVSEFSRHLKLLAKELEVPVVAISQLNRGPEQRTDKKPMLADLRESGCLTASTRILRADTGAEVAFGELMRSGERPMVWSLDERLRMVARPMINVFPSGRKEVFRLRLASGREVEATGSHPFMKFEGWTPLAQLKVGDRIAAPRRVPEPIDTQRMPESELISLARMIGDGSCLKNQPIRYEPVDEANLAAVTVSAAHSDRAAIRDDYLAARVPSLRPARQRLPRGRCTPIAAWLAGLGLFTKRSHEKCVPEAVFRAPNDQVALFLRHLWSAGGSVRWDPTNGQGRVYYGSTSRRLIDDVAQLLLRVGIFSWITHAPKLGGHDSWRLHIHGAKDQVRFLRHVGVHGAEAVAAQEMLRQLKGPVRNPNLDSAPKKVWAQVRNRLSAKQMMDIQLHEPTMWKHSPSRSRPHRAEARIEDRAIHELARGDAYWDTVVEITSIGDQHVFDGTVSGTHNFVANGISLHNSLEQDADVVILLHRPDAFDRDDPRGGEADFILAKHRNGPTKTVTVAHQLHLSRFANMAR
# Protein RecA = target: T4, Protein RecA (Mycobacterium tuberculosis, UniProt P9WHJ3); experiment: Fluorescence Cell-Free Homogeneous Dose Retest to Identify Inhibitors of RecA-Intein Splicing Activity. [Related pubchem assays (depositor defined):AID2097, AID2223, AID489010, AID492950]; format: functional
# T4 sequence (P9WHJ3 whole entry): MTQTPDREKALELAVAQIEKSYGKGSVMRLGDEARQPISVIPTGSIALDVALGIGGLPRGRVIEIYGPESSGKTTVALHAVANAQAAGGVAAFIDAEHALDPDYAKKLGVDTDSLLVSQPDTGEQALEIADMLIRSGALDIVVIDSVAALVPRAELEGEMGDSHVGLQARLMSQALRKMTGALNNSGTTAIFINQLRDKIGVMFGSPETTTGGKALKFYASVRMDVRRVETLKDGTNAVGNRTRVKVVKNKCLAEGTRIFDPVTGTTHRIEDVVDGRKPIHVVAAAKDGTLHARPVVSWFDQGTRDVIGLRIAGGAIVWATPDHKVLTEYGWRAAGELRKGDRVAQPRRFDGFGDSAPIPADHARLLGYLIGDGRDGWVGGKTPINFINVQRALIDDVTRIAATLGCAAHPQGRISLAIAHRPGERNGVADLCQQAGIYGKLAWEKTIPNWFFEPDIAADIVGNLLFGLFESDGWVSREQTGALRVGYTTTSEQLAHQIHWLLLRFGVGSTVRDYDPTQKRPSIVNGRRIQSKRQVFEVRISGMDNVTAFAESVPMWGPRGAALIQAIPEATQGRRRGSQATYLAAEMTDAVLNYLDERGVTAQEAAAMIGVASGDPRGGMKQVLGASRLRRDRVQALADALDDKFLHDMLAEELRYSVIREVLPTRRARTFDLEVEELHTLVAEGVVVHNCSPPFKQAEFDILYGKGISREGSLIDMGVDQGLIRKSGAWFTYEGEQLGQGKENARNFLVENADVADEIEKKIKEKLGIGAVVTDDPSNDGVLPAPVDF
# [9] = reduction of Shn3 3'UTR-driven luciferase in osteoblasts – cell-based, Clone20 osteoblasts, firefly luciferase, cherry-picked, dose response (AID 624132); format: functional;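 note: firefly luciferase luminescence from reporter carrying the Shn3 3'UTR in osteoblasts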
# [10] = loss of viability in HepG2 cells – cell-based, CellTiter-Glo, cherry-picked, cytotoxicity control for Shn3 inhibitor project, dose response (AID 624134); format: functional
# [11] = non-specific 3'UTR reporter inhibition in Clone20-Shn3RL – cell-based, Renilla luciferase, cherry-picked, counter-screen for Shn3 inhibitor project, dose response (AID 624133); format: functional
# [12] = Fluorescence-based cell-based high throughput dose response assay for inhibitors of the interaction of nucleotide-binding oligomerization domain containing 2 (NOD2) and the receptor-interacting serine-threonine kinase 2 (RIPK2).; format: functional; conditions: Homo sapiens
# [13] = target: ATP-binding cassette sub-family B member 6 (Homo sapiens, UniProt Q9NP58); experiment: ABCB6 transporter inhibitors, porphyrin accumulation, dose response, flow cytometry, K562-ABCB6 cells, cherry pick 02 (AID 624487); format: functional; conditions: read-out: EC50_MICROM
# HEK293 [14] = experiment: cells; conditions: Homo sapiens
# HEK293 [15] = experiment: cells; conditions: Homo sapiens; remark: listed apart in the source
# [16] = target: Fructose-bisphosphate aldolase (Mycobacterium tuberculosis, UniProt P9WQA3); experiment: Fluorescence-based biochemical high throughput dose response assay for inhibitors of the fructose-bisphosphate aldolase (FBA) of M. tuberculosis.; format: functional
# Paired box protein Pax-8 = Paired box protein Pax-8 (Homo sapiens, UniProt Q06710); experiment: PAX8 transcriptional activity inhibition in RMG-I – RMG-I cells, luciferase, cherry-pick, dose response (AID 687027); format: functional, cell-based;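 note: luciferase reporter driven by Pax8 target thyroperoxidase promoter measured by SteadyGlo luminescence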
# [17] = CMV-driven luciferase expression suppression in HEK293 – cell-based, luminescence, dry powder, counter-screen for Pax8 inhibitor project, dose response (AID 743020); format: functional
# [18] = general cell-killing toxicity readout – plate reader, dry powder samples, cytotoxicity control for PAX8 inhibitor project, dose response (AID 743021); format: functional, cell-based
# [19] = target: T5, Scavenger receptor class B member 1 (Mus musculus, UniProt Q61009); experiment: mouse SR-BI DiI-HDL transfer blockers – ldlA[mSR-BI] CHO cells, fluorescence plate reader, dry powder, set 9, dose response (AID 623880); format: functional, cell-based
# T5 sequence (Q61009 whole entry): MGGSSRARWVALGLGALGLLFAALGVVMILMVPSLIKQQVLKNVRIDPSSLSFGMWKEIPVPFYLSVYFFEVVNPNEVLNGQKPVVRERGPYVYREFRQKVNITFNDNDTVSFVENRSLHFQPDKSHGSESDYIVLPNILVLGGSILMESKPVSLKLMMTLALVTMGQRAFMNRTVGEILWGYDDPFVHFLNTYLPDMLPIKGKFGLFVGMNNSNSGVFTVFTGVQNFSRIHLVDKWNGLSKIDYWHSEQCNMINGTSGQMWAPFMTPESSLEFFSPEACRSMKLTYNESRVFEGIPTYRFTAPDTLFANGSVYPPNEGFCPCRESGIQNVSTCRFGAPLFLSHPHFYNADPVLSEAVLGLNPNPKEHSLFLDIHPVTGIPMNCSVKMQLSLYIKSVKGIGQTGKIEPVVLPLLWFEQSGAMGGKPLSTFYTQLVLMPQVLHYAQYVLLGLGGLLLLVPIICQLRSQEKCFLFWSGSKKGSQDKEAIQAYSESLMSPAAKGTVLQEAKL
# [20] = target: T5, Scavenger receptor class B member 1; experiment: blockers of DiI-HDL lipid transfer via SR-BI – cell-based, ldlA[mSR-BI] CHO, DiI fluorescence, dry powder, set 10, dose response (AID 624029); format: functional
# Protein Wnt-3a = Protein Wnt-3a (Mus musculus, UniProt P27467); experiment: SAR analysis of small molecule antagonists of Gli-SUFU in a Wnt3a luminescent reporter assay.; format: functional
# Sequence of Protein Wnt-3a (P27467 whole entry): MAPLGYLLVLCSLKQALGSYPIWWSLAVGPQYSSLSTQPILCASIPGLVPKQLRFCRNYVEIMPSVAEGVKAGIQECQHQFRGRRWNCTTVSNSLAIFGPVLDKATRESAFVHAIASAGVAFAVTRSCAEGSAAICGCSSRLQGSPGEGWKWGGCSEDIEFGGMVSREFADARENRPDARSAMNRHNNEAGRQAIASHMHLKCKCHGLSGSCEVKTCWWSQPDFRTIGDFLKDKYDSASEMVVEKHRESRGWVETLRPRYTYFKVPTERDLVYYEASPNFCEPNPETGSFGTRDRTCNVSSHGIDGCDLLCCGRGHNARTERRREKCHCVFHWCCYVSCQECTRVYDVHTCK
# Sequence of FAD-linked sulfhydryl oxidase ALR (P55789 whole entry): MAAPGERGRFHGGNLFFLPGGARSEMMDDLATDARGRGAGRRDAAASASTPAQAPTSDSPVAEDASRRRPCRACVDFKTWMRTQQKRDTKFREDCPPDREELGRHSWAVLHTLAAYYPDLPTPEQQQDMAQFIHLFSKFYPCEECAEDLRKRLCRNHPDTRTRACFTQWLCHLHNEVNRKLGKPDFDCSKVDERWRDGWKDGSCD
# Sequence of Fructose-bisphosphate aldolase (P9WQA3 whole entry): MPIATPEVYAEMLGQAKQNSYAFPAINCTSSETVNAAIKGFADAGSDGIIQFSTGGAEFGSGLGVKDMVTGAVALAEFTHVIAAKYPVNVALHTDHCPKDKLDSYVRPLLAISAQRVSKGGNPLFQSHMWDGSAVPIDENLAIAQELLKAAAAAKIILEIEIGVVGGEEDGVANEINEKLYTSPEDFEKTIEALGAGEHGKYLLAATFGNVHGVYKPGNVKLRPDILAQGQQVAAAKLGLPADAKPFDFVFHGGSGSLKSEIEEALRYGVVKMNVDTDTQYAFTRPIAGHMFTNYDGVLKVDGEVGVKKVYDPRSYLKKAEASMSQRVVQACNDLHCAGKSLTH
# Sequence of SWI/SNF-related matrix-associated actin-dependent regulator of chromatin subfamily A member 2 (P51531 whole entry): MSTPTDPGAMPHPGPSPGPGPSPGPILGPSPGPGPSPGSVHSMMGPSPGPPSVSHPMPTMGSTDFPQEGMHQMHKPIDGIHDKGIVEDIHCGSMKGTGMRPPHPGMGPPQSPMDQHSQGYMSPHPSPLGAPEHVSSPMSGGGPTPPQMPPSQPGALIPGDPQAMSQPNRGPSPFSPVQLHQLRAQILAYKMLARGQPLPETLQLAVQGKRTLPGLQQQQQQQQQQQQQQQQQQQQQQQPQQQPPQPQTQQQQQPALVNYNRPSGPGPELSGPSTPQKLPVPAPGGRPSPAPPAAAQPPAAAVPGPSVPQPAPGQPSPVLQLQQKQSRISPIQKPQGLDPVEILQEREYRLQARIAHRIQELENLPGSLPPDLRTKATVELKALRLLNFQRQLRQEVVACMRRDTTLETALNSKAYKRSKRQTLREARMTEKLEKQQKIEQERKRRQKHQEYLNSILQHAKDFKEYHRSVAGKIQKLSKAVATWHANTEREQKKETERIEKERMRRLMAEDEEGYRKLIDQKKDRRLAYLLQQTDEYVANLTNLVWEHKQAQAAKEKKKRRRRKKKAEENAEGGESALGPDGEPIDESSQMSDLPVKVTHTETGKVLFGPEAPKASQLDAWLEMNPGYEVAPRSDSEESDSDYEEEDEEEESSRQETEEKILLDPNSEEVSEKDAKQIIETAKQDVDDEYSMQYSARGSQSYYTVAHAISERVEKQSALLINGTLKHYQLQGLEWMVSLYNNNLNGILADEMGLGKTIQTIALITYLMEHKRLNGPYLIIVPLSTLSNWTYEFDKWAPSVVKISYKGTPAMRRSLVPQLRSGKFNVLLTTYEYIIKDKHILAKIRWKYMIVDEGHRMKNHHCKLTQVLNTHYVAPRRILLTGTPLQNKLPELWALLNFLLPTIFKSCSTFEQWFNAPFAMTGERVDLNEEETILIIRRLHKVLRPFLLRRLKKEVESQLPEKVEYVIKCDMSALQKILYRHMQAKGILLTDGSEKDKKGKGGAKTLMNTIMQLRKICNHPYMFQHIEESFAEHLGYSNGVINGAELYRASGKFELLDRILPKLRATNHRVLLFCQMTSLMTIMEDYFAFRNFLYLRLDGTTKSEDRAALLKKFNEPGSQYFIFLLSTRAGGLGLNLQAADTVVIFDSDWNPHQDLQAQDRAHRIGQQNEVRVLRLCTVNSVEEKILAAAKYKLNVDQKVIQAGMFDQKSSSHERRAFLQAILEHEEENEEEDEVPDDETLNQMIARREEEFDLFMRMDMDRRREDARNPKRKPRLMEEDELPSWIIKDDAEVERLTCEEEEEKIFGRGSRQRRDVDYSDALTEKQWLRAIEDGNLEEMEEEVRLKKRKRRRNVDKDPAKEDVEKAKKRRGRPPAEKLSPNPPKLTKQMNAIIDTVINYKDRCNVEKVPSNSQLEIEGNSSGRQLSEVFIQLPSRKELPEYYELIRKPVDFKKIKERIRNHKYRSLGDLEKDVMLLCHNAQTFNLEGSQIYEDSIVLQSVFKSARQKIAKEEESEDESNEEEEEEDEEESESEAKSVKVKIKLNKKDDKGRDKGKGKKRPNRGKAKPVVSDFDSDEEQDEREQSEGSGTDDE
# Sequence of Paired box protein Pax-8 (Q06710 whole entry): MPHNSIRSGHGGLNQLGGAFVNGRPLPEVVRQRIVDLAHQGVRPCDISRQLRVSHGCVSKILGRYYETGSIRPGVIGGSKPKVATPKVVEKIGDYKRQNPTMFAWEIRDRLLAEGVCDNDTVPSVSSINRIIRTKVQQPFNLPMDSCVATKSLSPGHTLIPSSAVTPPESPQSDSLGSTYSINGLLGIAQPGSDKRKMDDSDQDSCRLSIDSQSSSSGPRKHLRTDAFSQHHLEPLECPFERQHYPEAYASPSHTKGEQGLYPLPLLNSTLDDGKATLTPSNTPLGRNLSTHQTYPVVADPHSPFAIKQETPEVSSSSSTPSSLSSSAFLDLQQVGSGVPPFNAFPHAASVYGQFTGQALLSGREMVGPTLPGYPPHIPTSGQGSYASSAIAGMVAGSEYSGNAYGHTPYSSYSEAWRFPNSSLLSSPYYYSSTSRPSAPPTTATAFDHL
# Sequence of Botulinum neurotoxin type F (P30996 1-436 limits assumed): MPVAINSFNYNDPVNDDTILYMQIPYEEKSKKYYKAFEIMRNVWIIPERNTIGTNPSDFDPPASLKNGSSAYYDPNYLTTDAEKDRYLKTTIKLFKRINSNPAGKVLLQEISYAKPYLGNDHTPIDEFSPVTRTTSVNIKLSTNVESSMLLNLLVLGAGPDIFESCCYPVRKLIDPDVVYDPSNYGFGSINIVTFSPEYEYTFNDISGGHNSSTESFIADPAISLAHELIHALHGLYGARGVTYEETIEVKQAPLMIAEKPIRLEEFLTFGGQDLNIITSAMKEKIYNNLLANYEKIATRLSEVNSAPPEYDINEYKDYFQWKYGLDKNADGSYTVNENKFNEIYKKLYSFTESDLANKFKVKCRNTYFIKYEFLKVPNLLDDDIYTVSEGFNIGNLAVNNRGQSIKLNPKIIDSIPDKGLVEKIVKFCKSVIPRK
# Sequence of ATP-binding cassette sub-family B member 6 (Q9NP58 whole entry): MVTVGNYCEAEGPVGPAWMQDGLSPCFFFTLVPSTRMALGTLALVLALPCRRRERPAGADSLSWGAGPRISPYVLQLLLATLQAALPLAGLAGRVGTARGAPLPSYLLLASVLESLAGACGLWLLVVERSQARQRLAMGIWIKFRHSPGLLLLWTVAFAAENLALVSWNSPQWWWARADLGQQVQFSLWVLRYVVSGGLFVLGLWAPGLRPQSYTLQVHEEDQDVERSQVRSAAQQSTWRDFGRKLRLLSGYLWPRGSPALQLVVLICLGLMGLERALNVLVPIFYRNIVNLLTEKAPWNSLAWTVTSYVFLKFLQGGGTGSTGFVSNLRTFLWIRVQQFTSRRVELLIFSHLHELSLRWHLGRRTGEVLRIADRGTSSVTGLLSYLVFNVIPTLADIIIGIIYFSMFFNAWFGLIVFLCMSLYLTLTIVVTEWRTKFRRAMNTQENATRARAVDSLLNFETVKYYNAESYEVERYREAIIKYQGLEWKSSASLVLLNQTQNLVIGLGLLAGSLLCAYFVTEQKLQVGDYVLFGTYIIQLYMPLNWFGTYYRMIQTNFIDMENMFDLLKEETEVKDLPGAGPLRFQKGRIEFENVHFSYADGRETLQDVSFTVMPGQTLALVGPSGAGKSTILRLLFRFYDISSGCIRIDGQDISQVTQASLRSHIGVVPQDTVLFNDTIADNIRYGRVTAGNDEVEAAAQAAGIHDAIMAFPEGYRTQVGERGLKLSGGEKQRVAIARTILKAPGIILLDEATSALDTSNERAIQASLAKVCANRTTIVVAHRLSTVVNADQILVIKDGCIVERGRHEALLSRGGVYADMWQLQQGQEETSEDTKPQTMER
smiles,measurement,setting,value
Cc1cc2cc(CNC(=O)c3ccc(S(=O)(=O)N4CCCCC4)cc3)ccc2[nH]1,EC50,[1],> 20 µM (inactive)
COc1ccc(-c2nc(C#N)c(NCC3CCCO3)o2)cc1 (stereo not drawn),EC50,[2],> 91.1 µM (inactive)
same,EC50,[3],> 91.1 µM (inactive)
CN(C)/C=C/c1oc2ccc(O)cc2c1[N+](=O)[O-],IC50,[4],14 µM (active)
same,IC50,[5],26.2 µM (inactive)
Cc1cccc(C)c1NC(=O)c1nc(S(=O)(=O)Cc2ccccc2)ncc1Cl,EC50,[6],9.13 µM (active)
same,AC50,[7],1.74 µM (active)
same,AC50,[8],4.34 µM (active)
same,EC50,Protein RecA,6.63 µM (active)
same,AC50,[9],4.33 µM (active)
same,AC50,[10],22.9 µM (active)
same,AC50,[11],10.6 µM (active)
same,IC50,[12],4.11 µM (active)
same,EC50,[13],38.1 µM (active)
same,EC50,HEK293 [14],> 59.6 µM (inactive)
same,EC50,HEK293 [15],> 59.6 µM (inactive)
Cc1ccc(-c2cnc(-c3ccccc3C(=O)O)o2)cc1,IC50,[16],0.919 µM (active)
COc1ccccc1S(=O)(=O)N(C)C[C@H]1Oc2cc(C#CCC3CCCC3)ccc2S(=O)(=O)N([C@@H](C)CO)C[C@H]1C,AC50,Paired box protein Pax-8,9.5 µM (active)
same,AC50,[17],55.2 µM (active)
same,AC50,[18],51.9 µM (active)
COCC(=O)N1CCc2cc(-c3csc(NC(=O)c4cc(OC)cc(OC)c4)n3)ccc21,AC50,[19],0.00684 µM (active)
same,AC50,[20],0.00538 µM (active)
N#Cc1ccc(C(=O)Nc2cc(N3CCCCC3)ncn2)cc1,IC50,Protein Wnt-3a,> 21.8 µM (inactive)
